What was measured:
Format in all cases: cell-based
[1] = system: normal cells and abnormal cells; assay: Inverted slide-based nuclease digestion test with thiol reagent; settings: thiol reagent added to the treatment solution
Procedure: Certain embodiments of the invention include a slide-based test. One example of a slide based test includes obtaining a test sample, (e.g., scraping cells off of their culture plates); suspending the sample in phosphate buffered saline (PBS); administering a drop of the cell suspension on a laminin coated slide. The sample administered to the coated slide is allowed to air dry (about 15 minutes). The dried slide is subjected to digestion with ALU (about 15 minutes). After digestion the slide is stained with ethidium bromide (1 minute) and imaged under fluorescence. Aside from being fast, this method is an improvement on standard “smear” methods (like Pap tests) in that it is insensitive to the air-drying artifacts that cause major problems with the standard methods and necessitate using preservatives and fixatives. An alternative sampling technique includes depositing cells by contacting the slide with a tissue block.
Thus, the result of the method is inverted. Inversion of the test can be produced by adding a thiol reagent such as DTT to the treatment solution.

[2] = system: normal vasculogenic endothelial cells; assay: Formation of vasculogenic cords by normal endothelial cells on matrix; settings: normal endothelial cells on thin and thick matrix; agent added to the culture medium
Text: With the specific exception of normal vasculogenic endothelial cells, normal cells and cancer cells of low invasive potential form clusters containing small numbers of cells when grown to less than confluent density on serum proteins absorbed to a solid support or on layers of extracellular matrix ranging from less than 50 microns to over 1000 microns in thickness. […] Normal vasculogenic […] cells grown to confluent density on absorbed serum proteins form characteristic “cobblestone” monolayers. These normal endothelial cells form distinctive cord-like structures when grown on thin matrix and networks of these cords when grown on thick matrix. The formation of these vasculogenic cords, which are known to be precursors to the formation of blood vessels, is prevented by the addition of anti-angiogenic agents such as the drug TNP-470 (a derivative of flimagillin) to the culture medium.

[3] = system: tumor cells grown on thin matrix; assay: Labeling of nuclei of tumor cells grown on thin matrix by DNA-binding agents
Text: Rather, they form clusters or sheets of cells with no evidence of the formation of perfusion channels. […] […] These and other similar experiments reveal that polar agents such as bisbenzimide and doxorubicin are systematically excluded from the cells comprising tumor nests while these cells are accessible to neutral molecules of similar molecular weights.

[4] = system: invasive tumor cells forming tumor nests; assay: Labeling of nuclei of invasive tumor cells in tumor nests on thick matrix by DNA-binding agents; settings: even after prolonged exposure
Text: Rather, they form clusters or sheets of cells with no evidence of the formation of perfusion channels. […] Invasive tumor cells grown in vitro on thick matrix and stained by the addition of bisbenzimide to the culture medium show staining restricted to the nuclei of the cells on the peripheries of the individual cell clusters forming the tumor nest. These and other similar experiments reveal that polar agents such as bisbenzimide and doxorubicin are systematically excluded from the cells comprising tumor nests while these cells are accessible to neutral molecules of similar molecular weights.

tumor nest = assay: Perfusion of tumor nests by neutral fluorescent dyes and dextran conjugates; settings: microinjected into a sinusoid of a tumor nest; fluorescence microscopy
Text: Invasive tumor cells grown on thick layers of extracellular matrix protein form tumor nests in vitro and can be used as model systems for the evaluation of the efficacy of anti-cancer drugs against similar structures in vivo. Fluorescence microscopy images of a fluorescent dye Texas Red microinjected into a sinusoid of a tumor nest will typically show the movement of the dye into the perfusion channels between clumps of tumor cells in the tumor nest. […] This same pattern of perfusion is evident when neutral fluorescent dyes are applied to tissues or layers of matrix proteins containing tumor nests rather than being injected into the nests.

Compound | labeling of nuclei [3] | labeling of nuclei [4] | other results
O[C@@H](CS)[C@@H](O)CS [DTT] | – | – | effect on result of nuclease digestion test [1]: normal cells remain intact and the abnormal cells are degraded
CO[C@@H]1[C@H](OC(=O)NC(=O)CCl)CC[C@]2(CO2)[C@H]1[C@@]1(C)O[C@@H]1CC=C(C)C [TNP-470] | – | – | formation of vasculogenic cords [2]: prevented
CN1CCN(c2ccc3[nH]c(-c4ccc5[nH]c(-c6ccc(O)cc6)nc5c4)nc3c2)CC1 [bisbenzimide] | rapidly and efficiently labeled | only the nuclei of cells on the peripheries of the tumor cell clusters forming the nests are labeled | –
Texas Red | – | – | movement of dye into perfusion channels of tumor nest (tumor nest): the tumor nest is permeated by the dye
COc1cccc2c1C(=O)c1c(O)c3c(c(O)c1C2=O)C[C@@](O)(C(=O)CO)C[C@@H]3O[C@H]1C[C@H](N)[C@H](O)[C@H](C)O1 [doxorubicin] | rapidly and efficiently labeled | only the nuclei of cells on the peripheries of the tumor cell clusters forming the nests are labeled | –
